Values joined by “and” are separate entries in the source; they are usually repeats but may differ in a detail not shown here. Equal entries are not always repeated. Inconclusive results and toxic doses are left out. How the source made its calls: active means survival T/C of 150% or more; inactive means T/C below 125% in these data.
System: P388 leukemia ip, CD2F1 mice, survival T/C
Assay: NCI In Vivo Anticancer Drug Screen. Data for tumor model P388 Leukemia (intraperitoneal) in CD2F1 (CDF1) mice
Conditions: endpoint: median survival time, higher = longer survival
Summary of the method: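 Mice carrying the transplanted tumor received test compound or vehicle. Survival was recorded in each group, and the value is the treated-group measurement divided by that of the vehicle-treated control group.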

[1] = dose: 25.0 mg/kg/injection, schedule: Q01DX009 (ip), vehicle: saline
[2] = dose: 50.0 mg/kg/injection, schedule: Q01DX009 (ip), vehicle: saline
[3] = dose: 100.0 mg/kg/injection, schedule: Q01DX009 (ip), vehicle: saline
[4] = dose: 50.0 mg/kg/injection, schedule: Q01DX005 (ip), vehicle: saline with Tween-80
[5] = dose: 100.0 mg/kg/injection, schedule: Q01DX005 (ip), vehicle: saline with Tween-80
[6] = dose: 50.0 mg/kg/injection, schedule: Q01DX009 (ip), vehicle: Klucel (hydroxypropylcellulose) (HPC)
[7] = dose: 100.0 mg/kg/injection, schedule: Q01DX009 (ip), vehicle: Klucel (hydroxypropylcellulose) (HPC)
[8] = dose: 200.0 mg/kg/injection, schedule: Q01DX009 (ip), vehicle: Klucel (hydroxypropylcellulose) (HPC)
[9] = dose: 50.0 mg/kg/injection, schedule: Q01DX009 (ip), vehicle: saline with Tween-80
[10] = dose: 100.0 mg/kg/injection, schedule: Q01DX009 (ip), vehicle: saline with Tween-80
[11] = dose: 200.0 mg/kg/injection, schedule: Q01DX009 (ip), vehicle: saline with Tween-80
[12] = dose: 25.0 mg/kg/injection, schedule: Q01DX009 (ip), vehicle: Klucel (hydroxypropylcellulose) (HPC)
[13] = dose: 100.0 mg/kg/injection, schedule: Q01DX001 (ip), vehicle: saline with Tween-80
[14] = dose: 200.0 mg/kg/injection, schedule: Q01DX001 (ip), vehicle: saline with Tween-80
[15] = dose: 400.0 mg/kg/injection, schedule: Q01DX001 (ip), vehicle: saline with Tween-80
[16] = dose: 200.0 mg/kg/injection, schedule: Q01DX009 (ip), vehicle: saline

Measured: T/C

CC(C)=CC(=O)OC(=O)C=C(C)C
inactive: dose: 100.0 mg/kg/injection, schedule: Q04DX003 (ip), vehicle: other 100 % of control | dose: 200.0 mg/kg/injection, schedule: Q04DX003 (ip), vehicle: other 100 % of control | dose: 400.0 mg/kg/injection, schedule: Q04DX003 (ip), vehicle: other 100 % of control

CC(=O)O[C@H]1CC[C@]2(C=O)[C@H]3CC[C@]4(C)[C@@H](C5=CC(=O)OC5)CC[C@]4(O)[C@@H]3CC[C@]2(O)C1
inactive: dose: 12.5 mg/kg/injection, schedule: Q04DX002 (ip), vehicle: saline 94 % of control | dose: 25.0 mg/kg/injection, schedule: Q04DX002 (ip), vehicle: saline 94 % of control | dose: 50.0 mg/kg/injection, schedule: Q04DX002 (ip), vehicle: saline 100 % of control | dose: 100.0 mg/kg/injection, schedule: Q04DX002 (ip), vehicle: saline 91 % of control

C=CCC(NC(C)=O)C(=O)O (stereo unspecified)
inactive: [1] 88 % of control | [2] 101 % of control | [3] 93 % of control

C/C(=N\NC(=S)Nc1ccc(S(N)(=O)=O)cc1)c1ccccn1
inactive: dose: 12.5 mg/kg/injection, schedule: Q01DX005 (ip), vehicle: saline with Tween-80 94 % of control | dose: 25.0 mg/kg/injection, schedule: Q01DX005 (ip), vehicle: saline with Tween-80 108 % of control | [4] 119 % of control | [5] 96 % of control

Cc1nc2ccc(Cl)cn2c1[N+](=O)[O-]
inactive: [6] 96 % of control | [7] 95 % of control | [8] 96 % of control

O=C1C2=C(C(=O)c3cnccc31)C1C=CC2CC1 (stereo unspecified)
inactive: dose: 25.0 mg/kg/injection, schedule: Q01DX005 (ip), vehicle: DMSO 98 % of control | dose: 50.0 mg/kg/injection, schedule: Q01DX005 (ip), vehicle: DMSO 92 % of control and 98 % of control | dose: 50.0 mg/kg/injection, schedule: Q01DX005 (ip), vehicle: Klucel (hydroxypropylcellulose) (HPC) 106 % of control | dose: 100.0 mg/kg/injection, schedule: Q01DX005 (ip), vehicle: DMSO 122 % of control | dose: 100.0 mg/kg/injection, schedule: Q01DX005 (ip), vehicle: Klucel (hydroxypropylcellulose) (HPC) 103 % of control | dose: 200.0 mg/kg/injection, schedule: Q01DX005 (ip), vehicle: Klucel (hydroxypropylcellulose) (HPC) 98 % of control

O=C1NCC(c2ccccc2)N1 (stereo unspecified)
inactive: [9] 119 % of control | [10] 100 % of control | [11] 106 % of control

O=C(O)c1ccc2c3c(ccc(C(=O)O)c13)CC2
inactive: [12] 105 % of control | [6] 102 % of control | [7] 99 % of control

COc1ccc(OC)c(/C=C/c2cnnc3ccccc23)c1
inactive: dose: 18.75 mg/kg/injection, schedule: Q04DX003 (ip), vehicle: Klucel (hydroxypropylcellulose) (HPC) 100 % of control | dose: 37.5 mg/kg/injection, schedule: Q04DX003 (ip), vehicle: Klucel (hydroxypropylcellulose) (HPC) 111 % of control | dose: 75.0 mg/kg/injection, schedule: Q04DX003 (ip), vehicle: Klucel (hydroxypropylcellulose) (HPC) 100 % of control | dose: 150.0 mg/kg/injection, schedule: Q04DX003 (ip), vehicle: Klucel (hydroxypropylcellulose) (HPC) 106 % of control | dose: 300.0 mg/kg/injection, schedule: Q04DX003 (ip), vehicle: Klucel (hydroxypropylcellulose) (HPC) 103 % of control

Cc1c2cc[n+](C)cc2c(C)c2c1[nH]c1ccccc12
inactive: dose: 1.25 mg/kg/injection, schedule: Q04DX002 (ip), vehicle: water 103 % of control and 117 % of control | dose: 2.5 mg/kg/injection, schedule: Q04DX002 (ip), vehicle: water 114 % of control and 121 % of control | dose: 12.5 mg/kg/injection, schedule: Q04DX002 (ip), vehicle: distilled water + Tween-80 122 % of control

O=NN(Cc1ccc(Cl)cc1)NC1=NCCN1
inactive: [6] 98 % of control | [7] 99 % of control | [8] 105 % of control

COCC(=O)O
inactive: [2] 96 % of control | [3] 93 % of control

CCc1cc(CC)c(-c2ccco2)c(COC(=O)NC)c1
inactive: [9] 101 % of control | [10] 101 % of control | [11] 106 % of control

CCC(C)C(NC(=O)C(C)Oc1cc(Cl)c(Cl)cc1Cl)C(=O)O (stereo unspecified)
inactive: [4] 92 % of control | [5] 101 % of control

C=CC(=O)C(C(=O)OCC)=P(c1ccccc1)(c1ccccc1)c1ccccc1
inactive: dose: 60.0 mg/kg/injection, schedule: Q01DX005 (ip), vehicle: Klucel (hydroxypropylcellulose) (HPC) 98 % of control | dose: 120.0 mg/kg/injection, schedule: Q01DX005 (ip), vehicle: Klucel (hydroxypropylcellulose) (HPC) 97 % of control | dose: 240.0 mg/kg/injection, schedule: Q01DX005 (ip), vehicle: Klucel (hydroxypropylcellulose) (HPC) 101 % of control

CCCCCCCCCCCCCC[n+]1ccc(C(N)=O)cc1
inactive: dose: 6.25 mg/kg/injection, schedule: Q01DX009 (ip), vehicle: saline with Tween-80 113 % of control | dose: 12.5 mg/kg/injection, schedule: Q01DX009 (ip), vehicle: saline with Tween-80 109 % of control | dose: 25.0 mg/kg/injection, schedule: Q01DX009 (ip), vehicle: saline with Tween-80 100 % of control

CCOC(=O)NC(Cc1cc(OC)c(OC)cc1Br)c1ccc(OC)c(OC)c1OC (stereo unspecified)
inactive: [13] 91 % of control | [14] 94 % of control | [15] 91 % of control

COc1ccc2c(c1)Oc1c(Cl)c3c(c(Cl)c1=N2)Oc1cc(OC)ccc1N=3
inactive: [13] 89 % of control | [14] 89 % of control | [15] 115 % of control

CN(C)C(C#N)C(=O)c1ccccc1 (stereo unspecified)
inactive: [12] 107 % of control | [6] 110 % of control | [7] 104 % of control

FC(F)C(F)(F)C(F)(F)C(F)(F)COCC1(COCC(F)(F)C(F)(F)C(F)(F)C(F)F)COC1
inactive: [9] 100 % of control | [10] 106 % of control | [11] 109 % of control

C/C=C1\CN2C3CC1C1(CN4c5c(OC)cc(OC)c(OC)c5C56CC7C(COC45O1)C1CC6N7C/C1=C/COC)C2CC31C(=O)Nc2c(OC)cc(OC)c(OC)c21 (stereo unspecified)
inactive: dose: 1.5 mg/kg/injection, schedule: Q01DX005 (ip), vehicle: Klucel (hydroxypropylcellulose) (HPC) 97 % of control | dose: 3.0 mg/kg/injection, schedule: Q01DX005 (ip), vehicle: Klucel (hydroxypropylcellulose) (HPC) 97 % of control | dose: 6.0 mg/kg/injection, schedule: Q01DX005 (ip), vehicle: Klucel (hydroxypropylcellulose) (HPC) 108 % of control | dose: 12.0 mg/kg/injection, schedule: Q01DX005 (ip), vehicle: Klucel (hydroxypropylcellulose) (HPC) 96 % of control

Cc1noc(N)c1C
inactive: [1] 98 % of control | [2] 98 % of control | [3] 98 % of control | [16] 95 % of control

COc1ccc(C(O)Cc2ccccc2)cc1 (stereo unspecified)
inactive: dose: 31.25 mg/kg/injection, schedule: Q01DX009 (ip), vehicle: saline + Tween-80 + alcohol 93 % of control | dose: 62.5 mg/kg/injection, schedule: Q01DX009 (ip), vehicle: saline + Tween-80 + alcohol 91 % of control | dose: 125.0 mg/kg/injection, schedule: Q01DX009 (ip), vehicle: saline + Tween-80 + alcohol 91 % of control | dose: 250.0 mg/kg/injection, schedule: Q01DX009 (ip), vehicle: saline + Tween-80 + alcohol 89 % of control

Nc1nc(N)c2c(n1)NC(=O)CC2c1ccccc1 (stereo unspecified)
inactive: dose: 60.0 mg/kg/injection, schedule: Q01DX005 (ip), vehicle: saline with Tween-80 97 % of control | dose: 120.0 mg/kg/injection, schedule: Q01DX005 (ip), vehicle: saline with Tween-80 90 % of control | dose: 240.0 mg/kg/injection, schedule: Q01DX005 (ip), vehicle: saline with Tween-80 90 % of control

c1ccc2c(c1)C1OC2c2cnccc21 (stereo unspecified)
inactive: dose: 100.0 mg/kg/injection, schedule: Q04DX002 (ip), vehicle: saline with Tween-80 95 % of control | dose: 200.0 mg/kg/injection, schedule: Q04DX002 (ip), vehicle: saline with Tween-80 96 % of control | dose: 400.0 mg/kg/injection, schedule: Q04DX002 (ip), vehicle: saline with Tween-80 93 % of control

CC/C=C(\CC)C(=O)O
inactive: [2] 90 % of control | [3] 100 % of control | [16] 102 % of control
